In patent US20230286955A1, “INHIBITORS OF THEM1” (Cornell University, priority 2022, published 2023):

Experiments:
[1] = in vitro; conditions: C57BL/6, mouse, primary brown adipocytes
[2] = target: full-length human Acot12 (Homo sapiens, UniProt Q8WYK0); test: biochemical
[3] = target: T1, Them1 START domain (Homo sapiens, UniProt Q8WXI4); test: Microscale thermophoresis binding, START domain; conditions: in words
T1 sequence (Q8WXI4 339-594 isoform Q8WXI4-2): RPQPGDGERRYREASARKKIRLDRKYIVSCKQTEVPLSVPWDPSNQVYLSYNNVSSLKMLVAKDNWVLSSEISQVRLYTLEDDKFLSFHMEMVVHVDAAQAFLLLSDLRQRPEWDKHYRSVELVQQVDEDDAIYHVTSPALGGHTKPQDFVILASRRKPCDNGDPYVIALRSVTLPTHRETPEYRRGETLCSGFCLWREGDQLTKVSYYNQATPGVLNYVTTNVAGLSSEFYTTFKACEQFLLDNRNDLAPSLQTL

[4] = target: T2, Them1-ΔSTART (Homo sapiens, UniProt Q8WXI4); test: Microscale thermophoresis binding, Them1-ΔSTART; conditions: for binding to Them1-ΔSTART: in words; for Kd: read-out: Kd, Thioesterase domains (Them1-ΔSTART ), MST, 100 nM labeled protein, 22° C.
T2 sequence (Q8WXI4 43-329 isoform Q8WXI4-2 limits assumed): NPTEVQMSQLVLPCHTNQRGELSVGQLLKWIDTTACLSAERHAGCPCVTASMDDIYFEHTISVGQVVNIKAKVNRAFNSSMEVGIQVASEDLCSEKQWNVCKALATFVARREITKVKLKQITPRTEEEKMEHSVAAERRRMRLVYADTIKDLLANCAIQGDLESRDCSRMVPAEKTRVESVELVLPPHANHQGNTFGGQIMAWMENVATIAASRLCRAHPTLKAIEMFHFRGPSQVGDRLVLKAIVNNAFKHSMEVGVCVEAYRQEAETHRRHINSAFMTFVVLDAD

[5] = target: T3, full-length Them1 (Homo sapiens, UniProt Q8WXI4); test: Microscale thermophoresis binding, full-length Them1; conditions: in words
T3 sequence (Q8WXI4 14-594 isoform Q8WXI4-2 limits assumed): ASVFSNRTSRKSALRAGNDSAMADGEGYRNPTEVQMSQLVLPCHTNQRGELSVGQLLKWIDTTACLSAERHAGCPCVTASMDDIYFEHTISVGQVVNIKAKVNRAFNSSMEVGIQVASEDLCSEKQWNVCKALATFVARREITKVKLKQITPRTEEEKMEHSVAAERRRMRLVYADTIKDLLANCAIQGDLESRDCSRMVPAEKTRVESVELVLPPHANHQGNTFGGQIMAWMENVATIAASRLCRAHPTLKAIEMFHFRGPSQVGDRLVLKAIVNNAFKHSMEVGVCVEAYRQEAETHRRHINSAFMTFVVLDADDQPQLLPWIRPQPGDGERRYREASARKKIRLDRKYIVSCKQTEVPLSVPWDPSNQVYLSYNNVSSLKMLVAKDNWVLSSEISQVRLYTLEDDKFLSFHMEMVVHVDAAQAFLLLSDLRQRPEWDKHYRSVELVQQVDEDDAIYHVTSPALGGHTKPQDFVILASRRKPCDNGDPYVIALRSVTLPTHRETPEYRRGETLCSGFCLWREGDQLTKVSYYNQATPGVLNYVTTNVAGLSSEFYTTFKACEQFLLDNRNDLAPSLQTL

[6] = test system: primary brown adipocytes cultured from A-Them1Tg mice; test: Oxygen consumption rates (OCR) in primary brown adipocytes; type: cell-based, mouse; conditions: compounds at their in vitro IC50 concentrations, 30 min, NE 1 μM; vs wild type (DMSO)
Method: Primary brown adipocytes from 4- to 6-w old wild type and A-Them1Tg mice were isolated, cultured and differentiated as described (Okada et al., 2016). In brief, BAT tissues harvested from 5- to 7-w old mice were pooled, minced and digested with collagenase B (Sigma-Aldrich; St. Louis, MO), and dispersed in growth medium [DMEM/F12 containing 4.5 g/L glucose, 0.1 mM pyruvate, 10 mM HEPES (Thermo Fisher; Waltham, MA) supplemented with 1% penicillin/streptomycin, 1% GlutaMAX (Thermo Fisher; Waltham, MA) and 20% fetal bovine serum]. […] Upon achieving confluence, pre-adipocytes were induced to differentiate for 8 d by culturing for the first 48 h in differentiation medium [DMEM/F12 containing 4.5 g/L glucose, 0.1 mM pyruvate, 10 mM HEPES (Thermo Fisher; Waltham, MA) supplemented with 1% penicillin/streptomycin, 1% GlutaMAX (Thermo Fisher; Waltham, MA), 10% fetal bovine serum, bovine insulin (5 μg/mL; Thermo Fisher; Waltham, MA) and rosiglitazone (1 μM; Sigma Aldrich; St. Louis, MO)] supplemented with dexamethasone (5 μM; Sigma Aldrich; St. Louis, MO) and 3-isobutyl-1-methylxanthine (0.5 mM; Sigma Aldrich; St. Louis, MO) and differentiation medium thereafter. On differentiation d 6 to 8, the adipocyte differentiation media was supplemented with L-(−)-norepinephrine (+) bitartrate (Calbiochem; EMD Millipore; Billerica, MA). Primary brown adipocytes were maintained in a cell culture incubator at 37° C. with 5% CO2.
In primary brown adipocytes on d 8 of differentiation, values of OCR were measured in the presence or absence of compounds using a Seahorse XF96 extracellular flux analyzer (Agilent Technologies; Santa Clara, CA). […] OCR values were measured before and after the exposure of cells to NE (1 μM) and normalized with total live cell count calculated through staining with NucRed Live probe (Thermo Fisher; Waltham, MA) measured at 715 nm emission and 623 nm excitation using a SpectraMax i3X plate reader (Molecular Devices; San Jose; CA).

[7] = target: T4, recombinant human Them1 (Homo sapiens, UniProt Q8WXI4); test: Acot activity assay (fluorometric, C14-CoA), inhibition of Them1; type: biochemical; conditions: in words
T4 construct: Reaction labeling recombinant full-length Them1; made in house; host or cells: E. coli Shuffle T7
T4 sequence (Q8WXI4 14-594 isoform Q8WXI4-2 limits assumed): T3 sequence (Q8WXI4 14-594 isoform Q8WXI4-2 limits assumed)
Method: Human Them1 consists of two splice variants (Them1a and Them1b) that are distinguished by an additional 13 amino acids at the C-terminus of the ‘a’ isoform (Adams et al., 2001). […] Sufficient quantities of recombinant Them1 required for the HTS were obtained as a service of the University of Georgia Bioexpression and Fermentation Core Facility (Athens, GA). […] Purity of recombinant Them1 was analyzed by SDS-PAGE followed by Coomassie Brilliant Blue staining. The concentration of recombinant Them1 was determined according to the molar extinction coefficient at 280 nm, which was calculated based on the amino acid sequence (www.expasy.org). Single use aliquots of recombinant Them1 were stored at −80° C. until use to prevent protein precipitation during purification. The pH values of all buffers were adjusted to remain at least two units removed from the pI of recombinant Them1.

full-length human Acot12, sequence (Q8WYK0 whole entry, the tested form may be a part): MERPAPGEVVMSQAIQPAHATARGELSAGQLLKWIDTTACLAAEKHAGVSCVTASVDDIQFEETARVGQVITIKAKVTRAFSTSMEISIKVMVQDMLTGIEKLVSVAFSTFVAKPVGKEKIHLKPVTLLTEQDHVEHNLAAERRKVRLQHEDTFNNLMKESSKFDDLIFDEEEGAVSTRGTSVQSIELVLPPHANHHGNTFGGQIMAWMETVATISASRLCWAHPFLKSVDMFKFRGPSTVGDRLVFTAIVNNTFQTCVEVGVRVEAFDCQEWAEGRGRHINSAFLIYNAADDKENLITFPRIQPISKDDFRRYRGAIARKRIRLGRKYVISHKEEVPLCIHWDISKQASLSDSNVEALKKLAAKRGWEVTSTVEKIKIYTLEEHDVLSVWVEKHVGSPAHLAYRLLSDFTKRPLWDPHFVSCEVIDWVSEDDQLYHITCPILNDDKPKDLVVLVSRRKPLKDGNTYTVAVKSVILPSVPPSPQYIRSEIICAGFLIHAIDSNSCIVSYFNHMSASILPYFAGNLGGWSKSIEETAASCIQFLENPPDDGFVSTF

SMILES	Kd [2] [µM]	binding affinity to the START domain compared to the parent U1 compound [3]	binding to Them1-ΔSTART [4]	Kd [4] [µM]	Kd / binding affinity to full-length Them1 compared to the parent U1 compound [5]	IC50 value compared to the parent U1 compound [7]	CC50 at 48 h [1] [µM]	OCR in A-Them1Tg brown adipocytes, reversal of Them1 suppression [6]
CCOC(=O)C1CCN(C(c2cccs2)c2c(C)[nH]c3ccccc23)CC1 (centres unmarked) [Compound U7, ethyl 1-((2-methyl-1H-indol-3-yl)(thiophen-2-yl)methyl)piperidine-4-carboxylate]	> 125	comparable	did not bind	> 125	comparable	–	> 125	–
Cc1[nH]c2ccccc2c1C(c1cccs1)N1CCN(Cc2ccccc2)CC1 (centres unmarked) [3-((4-benzylpiperazin-1-yl)(thiophen-2-yl)methyl)-2-methyl-1H-indole]	> 125	–	–	–	–	–	> 125	reversed the suppressive effects of Them1 on values of OCR
Cc1[nH]c2ccccc2c1C(c1cccs1)N1CCCC1 (centres unmarked) [Compound U2]	–	–	–	–	–	–	> 125	–
Cc1[nH]c2ccccc2c1C(c1cccs1)N1CCN(C(=O)c2ccccc2)CC1 (centres unmarked) [Compound U13, (4-((2-methyl-1H-indol-3-yl)(thiophen-2-yl)methyl)piperazin-1-yl)(phenyl)methanone]	> 125	comparable	did not bind	> 125	comparable	–	> 125	–
Cc1[nH]c2ccccc2c1C(c1cccs1)N1CCNCC1 (centres unmarked) [Compound U9, 2-methyl-3-(piperazin-1-yl(thiophen-2-yl)methyl)-1H-indole]	> 125	–	–	> 125	–	–	> 125	reversed the suppressive effects of Them1 on values of OCR
Cc1[nH]c2ccccc2c1C(c1cccs1)N1CCCCC1 (centres unmarked) [Compound U6]	> 125	–	–	> 125	–	–	> 125	reversed the suppressive effects of Them1 on values of OCR
Cc1[nH]c2ccccc2c1C(c1cccs1)N1CCN(C)CC1 (centres unmarked) [Compound U3]	–	–	–	–	–	–	> 125	–
Cc1[nH]c2ccccc2c1C(c1cccs1)N1CCOCC1 (centres unmarked) [Compound U5]	–	–	–	–	–	–	> 125	–
Cc1[nH]c2ccccc2c1C(c1cccs1)N1CCN(c2ccccc2)CC1 (centres unmarked) [Compound U4]	–	–	–	–	comparable	comparable	> 125	–

Continued, in another order:

Kd [2] [µM]	binding affinity to the START domain compared to the parent U1 compound [3]	binding to Them1-ΔSTART [4]	Kd [4] [µM]	Kd / binding affinity to full-length Them1 compared to the parent U1 compound [5]	IC50 value compared to the parent U1 compound [7]	SMILES	CC50 at 48 h [1] [µM]	OCR in A-Them1Tg brown adipocytes, reversal of Them1 suppression [6]
> 125	comparable	did not bind	> 125	comparable	–	CCOC(=O)N1CCN(C(c2ccc(C)s2)c2c(C)[nH]c3ccccc23)CC1 (centres unmarked) [Compound U16, ethyl 4-((2-methyl-1H-indol-3-yl)(5-methylthiophen-2-yl)methyl)piperazine-1-carboxylate]	> 125	–
> 125	–	–	–	–	–	Cc1[nH]c2ccccc2c1C(c1cccs1)N1CCN(C(=O)OCc2ccccc2)CC1 (centres unmarked) [benzyl 4-((2-methyl-1H-indol-3-yl)(thiophen-2-yl)methyl)piperazine-1-carboxylate]	–	remained suppressed
> 125	–	–	> 125	–	–	CC(=O)N1CCN(C(c2cccs2)c2c(C)[nH]c3ccccc23)CC1 (centres unmarked) [Compound U10, 1-(4-((2-methyl-1H-indol-3-yl)(thiophen-2-yl)methyl)piperazin-1-yl)ethan-1-one]	> 125	–
> 125	–	–	–	–	–	CCOC(=O)N1CCN(C(c2ccccc2)c2c(C)[nH]c3ccccc23)CC1 (centres unmarked) [ethyl 4-((2-methyl-1H-indol-3-yl)(phenyl)methyl)piperazine-1-carboxylate]	–	–
